Assay results reported in ChEMBL document CHEMBL1201861, “Genomics of Drug Sensitity in Cancer screening data, Wellcome Trust Sanger Institute”.

Tests used:
Assay in all cases: cells
COLO-741 = format: functional, cell-based, Homo sapiens; conditions: Homo sapiens, COLO-741
Description: SANGER: Inhibition of human COLO-741 cell growth in a cell viability assay.

COR-L23 = format: functional, cell-based, Homo sapiens; conditions: Homo sapiens, COR-L23;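 further: cell viability assay measuring how strongly compounds suppress growth of COR-L23 cells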
Description: SANGER: Inhibition of human COR-L23 cell growth in a cell viability assay.

Ca-Ski = format: functional, cell-based; conditions: Homo sapiens;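 further: cell viability assay measuring inhibition of Ca-Ski cell growth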
Description: SANGER: Inhibition of human Ca-Ski cell growth in a cell viability assay.

D-392MG = format: functional, cell-based, Homo sapiens; conditions: Homo sapiens, D-392MG
D-502MG = format: functional, cell-based, Homo sapiens; conditions: Homo sapiens, D-502MG
Description: SANGER: Inhibition of human D-502MG cell growth in a cell viability assay.

GI-ME-N = format: functional, cell-based, Homo sapiens; conditions: Homo sapiens, GI-ME-N;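 further: growth inhibition of human GI-ME-N cells, read out with a cell viability assay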
Description: SANGER: Inhibition of human GI-ME-N cell growth in a cell viability assay.

GMS-10 = format: functional, cell-based, Homo sapiens; conditions: Homo sapiens, GMS-10;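 further: growth inhibition of GMS-10 cells, read out as cell viability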
Description: SANGER: Inhibition of human GMS-10 cell growth in a cell viability assay.

GT3TKB = format: functional, cell-based, Homo sapiens; conditions: Homo sapiens, GT3TKB;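 further: growth inhibition of the cell line, read out with a cell viability assay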
Description: SANGER: Inhibition of human GT3TKB cell growth in a cell viability assay.

HCC1569 = format: functional, cell-based, Homo sapiens; conditions: Homo sapiens, HCC1569;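 further: growth inhibition of human HCC1569 cells, read out with a cell viability assay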
Description: SANGER: Inhibition of human HCC1569 cell growth in a cell viability assay.

HCC70 = format: functional, cell-based, Homo sapiens; conditions: Homo sapiens, HCC70;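 further: cell viability assay measuring how strongly the compound suppresses proliferation of HCC70 cells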
Description: SANGER: Inhibition of human HCC70 cell growth in a cell viability assay.

HEC-1 = format: functional, cell-based, Homo sapiens; conditions: Homo sapiens, HEC-1;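 further: growth inhibition of the cell line, read out with a cell viability assay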
Description: SANGER: Inhibition of human HEC-1 cell growth in a cell viability assay.

HT-1080 = format: functional, cell-based, Homo sapiens; conditions: Homo sapiens, HT-1080
Description: SANGER: Inhibition of human HT-1080 cell growth in a cell viability assay.

HT1197 = format: functional, cell-based, Homo sapiens, HT-1197; conditions: Homo sapiens, HT1197
Description: SANGER: Inhibition of human HT-1197 cell growth in a cell viability assay.

Hs-578T = format: functional, cell-based, Homo sapiens; conditions: Homo sapiens, Hs-578T
Description: SANGER: Inhibition of human Hs-578-T cell growth in a cell viability assay.

JVM-3 = format: functional, cell-based; conditions: Homo sapiens;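 further: growth inhibition of human JVM-3 cells, read out with a cell viability assay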
Description: SANGER: Inhibition of human JVM-3 cell growth in a cell viability assay.

KP-N-YN = format: functional, cell-based; conditions: Homo sapiens;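 further: growth inhibition of KP-N-YN cells, read out with a cell viability assay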
Description: SANGER: Inhibition of human KP-N-YN cell growth in a cell viability assay.

KYSE-140 = format: functional, cell-based, Homo sapiens; conditions: Homo sapiens, KYSE-140;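 further: cell viability assay measuring growth inhibition in human KYSE-140 cells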
Description: SANGER: Inhibition of human KYSE-140 cell growth in a cell viability assay.

KYSE-150 cell line = format: functional, cell-based, Homo sapiens; conditions: Homo sapiens, KYSE-150;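 further: growth inhibition of human KYSE-150 cells, read out with a cell viability assay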
Description: SANGER: Inhibition of human KYSE-150 cell growth in a cell viability assay.

KYSE-450 = format: functional, cell-based; conditions: Homo sapiens;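 further: cell growth inhibition measured by a viability assay in human KYSE-450 cells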
Description: SANGER: Inhibition of human KYSE-450 cell growth in a cell viability assay.

L-363 = format: functional, cell-based; conditions: Homo sapiens
Description: SANGER: Inhibition of human L-363 cell growth in a cell viability assay.

LAN-6 = format: functional, cell-based, Homo sapiens; conditions: Homo sapiens, LAN-6;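 further: growth inhibition of LAN-6 cells, determined with a cell viability assay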
Description: SANGER: Inhibition of human LAN-6 cell growth in a cell viability assay.

LU-134-A = format: functional, cell-based; conditions: Homo sapiens
Description: SANGER: Inhibition of human LU-134-A cell growth in a cell viability assay.

LoVo = format: functional, cell-based; conditions: Homo sapiens;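 further: growth inhibition of human LoVo cells, read out with a cell viability assay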
Description: SANGER: Inhibition of human LoVo cell growth in a cell viability assay.

MDA-MB-361 = format: functional, cell-based, Homo sapiens; conditions: Homo sapiens, MDA-MB-361
MOLT-4 = format: functional, cell-based; conditions: Homo sapiens;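 further: growth inhibition of MOLT-4 cells, determined with a cell viability readout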
Description: SANGER: Inhibition of human MOLT-4 cell growth in a cell viability assay.

MV4-11 = format: functional, cell-based, MV-4-11; conditions: Homo sapiens;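 further: cell viability readout measuring growth inhibition of human MV-4-11 cells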
Description: SANGER: Inhibition of human MV-4-11 cell growth in a cell viability assay.

MZ7-mel = format: functional, cell-based, Homo sapiens; conditions: Homo sapiens, MZ7-mel;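 further: growth inhibition of human MZ7-mel cells, measured by a cell viability assay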
Description: SANGER: Inhibition of human MZ7-mel cell growth in a cell viability assay.

NCI-H2087 = format: functional, cell-based, Homo sapiens; conditions: Homo sapiens, NCI-H2087;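 further: growth inhibition determined with a cell viability readout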
Description: SANGER: Inhibition of human NCI-H2087 cell growth in a cell viability assay.

NCI-H2347 = format: functional, cell-based, Homo sapiens; conditions: Homo sapiens, NCI-H2347;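 further: growth inhibition of the cell line, read out with a cell viability assay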
Description: SANGER: Inhibition of human NCI-H2347 cell growth in a cell viability assay.

NCI-H2405 = format: functional, cell-based, Homo sapiens; conditions: Homo sapiens, NCI-H2405;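 further: growth inhibition of the human cell line, read out with a cell viability assay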
Description: SANGER: Inhibition of human NCI-H2405 cell growth in a cell viability assay.

NCI-H358 = format: functional, cell-based, Homo sapiens; conditions: Homo sapiens, NCI-H358;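 further: growth inhibition of NCI-H358 human cells, read out with a cell viability assay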
Description: SANGER: Inhibition of human NCI-H358 cell growth in a cell viability assay.

NCI-H810 = format: functional, cell-based, Homo sapiens; conditions: Homo sapiens, NCI-H810;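 further: IC50 reflects inhibition of cancer cell line growth, read out with a cell viability assay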
Description: SANGER: Inhibition of human NCI-H810 cell growth in a cell viability assay.

OE19 = format: functional, cell-based, Homo sapiens; conditions: Homo sapiens, OE19;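 further: growth inhibition of OE19 cells, measured through a cell viability read-out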
Description: SANGER: Inhibition of human OE19 cell growth in a cell viability assay.

ONS-76 = format: functional, cell-based, Homo sapiens; conditions: Homo sapiens, ONS-76;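 further: growth inhibition of human ONS-76 cells, read out with a cell viability assay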
Description: SANGER: Inhibition of human ONS-76 cell growth in a cell viability assay.

RCC10RGB = format: functional, cell-based, Homo sapiens; conditions: Homo sapiens, RCC10RGB;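 further: growth inhibition of human RCC10RGB cells, read out by a cell viability assay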
Description: SANGER: Inhibition of human RCC10RGB cell growth in a cell viability assay.

RCM-1 = format: functional, cell-based, Homo sapiens; conditions: Homo sapiens, RCM-1;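 further: growth inhibition of the RCM-1 line, determined with a cell viability readout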
Description: SANGER: Inhibition of human RCM-1 cell growth in a cell viability assay.

RS4-11 = format: functional, cell-based; conditions: Homo sapiens;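 further: growth inhibition of RS4-11 cells, read out by a cell viability assay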
Description: SANGER: Inhibition of human RS4-11 cell growth in a cell viability assay.

RXF 393 = format: functional, cell-based; conditions: Homo sapiens;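 further: growth inhibition of human RXF 393 cells, read out with a cell viability assay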
Description: SANGER: Inhibition of human RXF393 cell growth in a cell viability assay.

SCC-25 = format: functional, cell-based, Homo sapiens; conditions: Homo sapiens, SCC-25;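 further: growth inhibition of SCC-25 cells, measured with a cell viability assay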
Description: SANGER: Inhibition of human SCC-25 cell growth in a cell viability assay.

SCC-9 = format: functional, cell-based, Homo sapiens; conditions: Homo sapiens, SCC-9;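 further: Read-out is a cell viability assay, with values giving inhibition of cell growth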
Description: SANGER: Inhibition of human SCC-9 cell growth in a cell viability assay.

SK-LU-1 = format: functional, cell-based, Homo sapiens; conditions: Homo sapiens, SK-LU-1;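 further: cell viability assay measuring growth inhibition of human SK-LU-1 cells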
Description: SANGER: Inhibition of human SK-LU-1 cell growth in a cell viability assay.

SK-MEL3 = format: functional, cell-based, Homo sapiens, SK-MEL-3; conditions: Homo sapiens, SK-MEL3;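 further: growth inhibition of human SK-MEL-3 cells, read out with a cell viability assay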
Description: SANGER: Inhibition of human SK-MEL-3 cell growth in a cell viability assay.

SW780 = format: functional, cell-based, Homo sapiens; conditions: Homo sapiens, SW780;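 further: growth inhibition of the cells, read out with a cell viability assay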
Description: SANGER: Inhibition of human SW780 cell growth in a cell viability assay.

ALL-PO = format: functional, cell-based; conditions: Homo sapiens;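 further: growth inhibition of ALL-PO cells, read out by a cell viability assay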
Description: SANGER: Inhibition of human ALL-PO cell growth in a cell viability assay.

BT-474 = format: functional, cell-based, Homo sapiens; conditions: Homo sapiens, BT-474
Description: SANGER: Inhibition of human BT-474 cell growth in a cell viability assay.

BV-173 = format: functional, cell-based; conditions: Homo sapiens
Description: SANGER: Inhibition of human BV-173 cell growth in a cell viability assay.

TGW = format: functional, cell-based; conditions: Homo sapiens;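 further: growth inhibition of human TGW cells, read out with a cell viability assay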
Description: SANGER: Inhibition of human TGW cell growth in a cell viability assay.

TYK-nu = format: functional, cell-based, Homo sapiens; conditions: Homo sapiens, TYK-nu;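 further: growth inhibition of human TYK-nu cells, read out by a cell viability assay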
Description: SANGER: Inhibition of human TYK-nu cell growth in a cell viability assay.

UACC-893 = format: functional, cell-based, Homo sapiens; conditions: Homo sapiens, UACC-893
Description: SANGER: Inhibition of human UACC-893 cell growth in a cell viability assay.

WM-115 = format: functional, cell-based, Homo sapiens; conditions: Homo sapiens, WM-115
Description: SANGER: Inhibition of human WM-115 cell growth in a cell viability assay.

CCRF-CEM = format: functional, cell-based; conditions: Homo sapiens;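 further: inhibition of CCRF-CEM cell growth, measured by a cell viability assay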
Description: SANGER: Inhibition of human CCRF-CEM cell growth in a cell viability assay.

CCOc1nc(NC(=O)Cc2cc(OC)ccc2OC)cc(N)c1C#N
IC50 (COLO-741): > 10 µM
IC50 (COR-L23): > 10 µM
IC50 (Ca-Ski): > 10 µM
IC50 (D-392MG): > 10 µM
IC50 (D-502MG): > 10 µM
IC50 (GI-ME-N): > 10 µM
IC50 (GMS-10): > 10 µM
IC50 (GT3TKB): > 10 µM
IC50 (HCC1569): > 10 µM
IC50 (HCC70): > 10 µM
IC50 (HEC-1): > 10 µM
IC50 (HT-1080): > 10 µM
IC50 (HT1197): > 10 µM
IC50 (Hs-578T): > 10 µM
IC50 (JVM-3): > 10 µM
IC50 (KP-N-YN): > 10 µM
IC50 (KYSE-140): > 10 µM
IC50 (KYSE-150 cell line): > 10 µM
IC50 (KYSE-450): > 10 µM
IC50 (L-363): > 10 µM
IC50 (LAN-6): > 10 µM
IC50 (LU-134-A): > 10 µM
IC50 (LoVo): > 10 µM
IC50 (MDA-MB-361): > 10 µM
IC50 (MOLT-4): > 10 µM
IC50 (MV4-11): > 10 µM
IC50 (MZ7-mel): > 10 µM
IC50 (NCI-H2087): > 10 µM
IC50 (NCI-H2347): > 10 µM
IC50 (NCI-H2405): > 10 µM
IC50 (NCI-H358): > 10 µM
IC50 (NCI-H810): > 10 µM
IC50 (OE19): > 10 µM
IC50 (ONS-76): > 10 µM
IC50 (RCC10RGB): > 10 µM
IC50 (RCM-1): > 10 µM
IC50 (RS4-11): > 10 µM
IC50 (RXF 393): > 10 µM
IC50 (SCC-25): > 10 µM
IC50 (SCC-9): > 10 µM
IC50 (SK-LU-1): > 10 µM
IC50 (SK-MEL3): > 10 µM
IC50 (SW780): > 10 µM
IC50 (ALL-PO): > 10 µM
IC50 (BT-474): > 10 µM
IC50 (BV-173): > 10 µM
IC50 (TGW): > 10 µM
IC50 (TYK-nu): > 10 µM
IC50 (UACC-893): > 10 µM
IC50 (WM-115): > 10 µM
IC50 (CCRF-CEM): > 10 µM

CC(=O)O[C@@H]1[C@@H](OC(C)=O)[C@@H](O)[C@H](Oc2c(-c3ccc(O)cc3)oc3cc(O)cc(O)c3c2=O)O[C@H]1C
IC50 (COLO-741): > 10 µM
IC50 (COR-L23): > 10 µM
IC50 (Ca-Ski): > 10 µM
IC50 (D-392MG): > 10 µM
IC50 (D-502MG): > 10 µM
IC50 (GI-ME-N): > 10 µM
IC50 (GMS-10): > 10 µM
IC50 (GT3TKB): > 10 µM
IC50 (HCC1569): > 10 µM
IC50 (HCC70): > 10 µM
IC50 (HEC-1): > 10 µM
IC50 (HT-1080): > 10 µM
IC50 (HT1197): > 10 µM
IC50 (Hs-578T): > 10 µM
IC50 (JVM-3): > 10 µM
IC50 (KP-N-YN): > 10 µM
IC50 (KYSE-140): > 10 µM
IC50 (KYSE-150 cell line): > 10 µM
IC50 (KYSE-450): > 10 µM
IC50 (L-363): > 10 µM
IC50 (LAN-6): > 10 µM
IC50 (LU-134-A): > 10 µM
IC50 (LoVo): > 10 µM
IC50 (MDA-MB-361): > 10 µM
IC50 (MOLT-4): > 10 µM
IC50 (MV4-11): > 10 µM
IC50 (MZ7-mel): > 10 µM
IC50 (NCI-H2087): > 10 µM
IC50 (NCI-H2347): > 10 µM
IC50 (NCI-H2405): > 10 µM
IC50 (NCI-H358): > 10 µM
IC50 (NCI-H810): > 10 µM
IC50 (OE19): > 10 µM
IC50 (ONS-76): > 10 µM
IC50 (RCC10RGB): > 10 µM
IC50 (RCM-1): > 10 µM
IC50 (RS4-11): > 10 µM
IC50 (RXF 393): > 10 µM
IC50 (SCC-25): > 10 µM
IC50 (SCC-9): > 10 µM
IC50 (SK-LU-1): > 10 µM
IC50 (SK-MEL3): 7.74 µM
IC50 (SW780): > 10 µM
IC50 (ALL-PO): > 10 µM
IC50 (BT-474): > 10 µM
IC50 (BV-173): 3.01 µM
IC50 (TGW): > 10 µM
IC50 (TYK-nu): > 10 µM
IC50 (UACC-893): > 10 µM
IC50 (WM-115): > 10 µM
IC50 (CCRF-CEM): > 10 µM
